# Experimental data: paper PMC5994430, “Mitochondrial Delivery of Phenol Substructure Triggers Mitochondrial Depolarization and Apoptosis of Cancer Cells” (Frontiers in Pharmacology, 2018)
# Columns and labels:
# Format in all cases: cell-based, Human
# mitochondrial ROS = test: Mitochondrial ROS (MitoSOX Red) in A549 cells; details: 0.1 μM, 4 h
# Procedure: The amount of ROS in mitochondrial extracts was measured fluorimetrically by incubating cell suspension at 37°C for 10 min with 10 μM of MitoSOX Red probe (Invitrogen Life Technologies), as per manufacturer’s instructions. Results were expressed as nmoles/mg mitochondrial proteins, using a calibration curve previously set with serial dilution of H2O2.
# [t] Continuedof three experiments with similar results. (D) Confocal analysis of mitochondrial staining with MitoTracker® Green FM. Magnification: 60 × objective (0.52 numerical aperture); 10 × ocular lens. Bar: 10 μM. The micrographs are representative of three experiments with similar results. (E,F) The electron transport was measured spectrophotometrically in duplicates. ATP levels in mitochondrial extracts was measured by a chemiluminescence-based assay, in duplicates. Data are means ± SD (n = 3). For both panels: ^∗p < 0.001 vs. A549 ctrl cells; °p < 0.001 for BEAS-2B cells vs. the corresponding condition in A549 cells. (G,H) ROS amount in mitochondrial extracts and mitochondrial damage were measured fluorimetrically, in duplicates. Data are means ± SD (n = 3). […] There were no statistically significant differences between untreated (ctrl) and compound 1/compound 2-treated BEAS-2B cells for all the parameters analyzed in this figure.
# caspase 9 [1] = test: Caspase 9 activity in A549 cell lysates; details: 0.1 μM, 24 h
# Procedure: (§1) The activity of caspase 9 and 3 was measured by incubating 20 μg cell lysates with the respective fluorogenic substrates Ac-LEHD-AMC (LEHD-AMC) or DEVD-AMC (DEVD-AMC), as reported ([Pinzón-Daza et al., 2012]). Results were expressed as nmoles AMC/mg protein.
# (§2) FIGURE 7 Effects of phenol TPP-derivatives on mitochondria-dependent apoptosis. A549 and BEAS-2B cells were incubated 24 h in fresh medium (ctrl) or in medium containing 0.1 μM of 1 or 2. (A,B) The activity of caspase 9 and 3 was measured fluorimetrically, in duplicates. Data are means ± SD (n = 3). For both panels: ^∗p < 0.001 vs. A549 ctrl cells; °p < 0.001 for BEAS-2B cells vs. the corresponding condition in A549 cells. (C,D) Cell cycle distribution, measured in duplicates. Data are means ± SD (n = 3). For both panels: ^∗p < 0.001 vs. A549 ctrl cells: °p < 0.001 for BEAS-2B cells vs. the corresponding condition in A549 cells. (E) Bright field microscope analysis of cells. Magnification: 60 × objective (0.52 numerical aperture); 10 × ocular lens. Bar: 20 μM. The micrographs are representative of three experiments with similar results.
# caspase 9 [2] = test: Caspase 9 activity in BEAS-2B cell lysates; details: 0.1 μM, 24 h
# Procedure: as §1, §2
# [3] = system: mitofusin 1 (MFN1) and mitofusin 2 (MFN2); test: qRT-PCR of mitofusin mRNA in BEAS-2B cells; details: 0.1 μM, 4 h
# Procedure: (§3) Supplementary Figure 4 Effects of TPP-derivatives on mitofusin 1 and mitofusin 2 expression.
# (§4) A549 and BEAS-2B cells were incubated 4 h in fresh medium (ctrl) or with 0.1 µM of 1 and 2.
# (§5) Expression of mitofusin 1 (MFN1) and mitofusin 2 (MFN2) mRNA was evaluated by qRT-PCR in
# (§6) triplicates. Data are means ± SD (n=3).
# (§7) (1 picture or pasted object on this page, not shown here)
# [4] = system: mitofusin 1 (MFN1) and mitofusin 2 (MFN2); test: qRT-PCR of mitofusin mRNA in A549 cells; details: 0.1 μM, 4 h
# Procedure: as §3, §4, §5, §6, §7
# mitochondrial ATP = test: Mitochondrial ATP in A549 cells; details: 0.1 μM, 4 h
# Procedure: The amount of ATP was measured on 20 μg of mitochondrial extracts with the ATP Bioluminescent Assay Kit (FL-AA, Sigma Chemical Co.). Data were converted into nmoles/mg mitochondrial proteins, using a calibration curve previously set.
# [t] Continuedof three experiments with similar results. (D) Confocal analysis of mitochondrial staining with MitoTracker® Green FM. Magnification: 60 × objective (0.52 numerical aperture); 10 × ocular lens. Bar: 10 μM. The micrographs are representative of three experiments with similar results. (E,F) The electron transport was measured spectrophotometrically in duplicates. ATP levels in mitochondrial extracts was measured by a chemiluminescence-based assay, in duplicates. Data are means ± SD (n = 3). For both panels: ^∗p < 0.001 vs. A549 ctrl cells; °p < 0.001 for BEAS-2B cells vs. the corresponding condition in A549 cells. (G,H) ROS amount in mitochondrial extracts and mitochondrial damage were measured fluorimetrically, in duplicates. Data are means ± SD (n = 3). For both panels: ^∗p < 0.001 vs. A549 ctrl cells; °p < 0.001 for BEAS-2B cells vs. the corresponding condition in A549 cells. There were no statistically significant differences between untreated (ctrl) and compound 1/compound 2-treated BEAS-2B cells for all the parameters analyzed in this figure.
# BEAS-2B cells = test: Cell cycle analysis (propidium iodide flow cytometry); details: 0.1 μM, 24 h
# Procedure: (§8) 1 × 10^4 cells were harvested, washed with PBS, treated with 0.25 mg/ml RNAse and stained for 15 min with 50 μg/ml propidium iodide. Cell cycle distribution was analyzed by Guava® easyCyte flow cytometer (Millipore, Billerica, MA, United States), using the InCyte software (Millipore).
# as §2
# A549 cells [5] = test: as above; details: 0.1 μM, 24 h
# Procedure: as §8, §2
# A549 cells [6] = test: Mitochondrial mass (MitoTracker Green staining); details: 0.1 μM, 4 h
# Procedure: The amount of proteins in mitochondrial extracts, normalized to the total amount of cellular proteins, was considered an index of mitochondrial mass ([Jean et al., 2015]). Mitochondria biogenesis was evaluated by measuring the expressions of subunit I of COX-I, which is encoded by mitochondrial DNA, and of the SDH-A of complex II, which is encoded by nuclear DNA, using the MitoBiogenesis^TM In-Cell ELISA Kit (Abcam), following the manufacturer’s instructions. The unit (U) of each protein/mg mitochondrial proteins were calculated. Results were expressed as COX-1/SDH-A ratio.
# 0.5 × 10^5 cells were grown on sterile glass coverslips. […] The samples were analyzed with an Olympus FV300 laser scanning confocal microscope equipped with a Blue Argon (488 nm) laser, a Green Helium Neon (543 nm) laser, and FluoView 300 software (Olympus Biosystems, Hamburg, Germany). […]
# [t] […] (E,F) The electron transport was measured spectrophotometrically in duplicates. ATP levels in mitochondrial extracts was measured by a chemiluminescence-based assay, in duplicates. […] (G,H) ROS amount in mitochondrial extracts and mitochondrial damage were measured fluorimetrically, in duplicates. […] There were no statistically significant differences between untreated (ctrl) and compound 1/compound 2-treated BEAS-2B cells for all the parameters analyzed in this figure.
# U-2OS cells = test: Cell viability (neutral red), IC50; details: U-2OS osteosarcoma cells, CompuSyn
smiles,measurement,setting,value
CC(=O)Oc1ccc(C[P+](c2ccccc2)(c2ccccc2)c2ccccc2)cc1.[Br-] [Compound 1],mitochondrial ROS,mitochondrial ROS,acutely increased
same,activity of caspase 9,caspase 9 [1],strong activation
same,activity of caspase 9,caspase 9 [2],remained similar to untreated cells
same,expression of mitofusin 1 (MFN1) and mitofusin 2 (MFN2),[3],no changes
same,expression of mitofusin 1 (MFN1) and mitofusin 2 (MFN2),[4],no changes
same,amount of mitochondrial ATP,mitochondrial ATP,significant decrease
same,cell cycle distribution,BEAS-2B cells,no change
same,percentage of cells in S-phase,A549 cells [5],reduced percentage
same,percentage of cells in the sub-Go phase,A549 cells [5],increased
same,mitochondrial mass,A549 cells [6],reduced the mitochondrial mass
O=C(Oc1ccc(C[P+](c2ccccc2)(c2ccccc2)c2ccccc2)cc1C(F)(F)F)c1ccccc1.[Br-] [Compound 2],mitochondrial ROS,mitochondrial ROS,acutely increased
same,activity of caspase 9,caspase 9 [1],strong activation
same,activity of caspase 9,caspase 9 [2],remained similar to untreated cells
same,expression of mitofusin 1 (MFN1) and mitofusin 2 (MFN2),[3],no changes
same,expression of mitofusin 1 (MFN1) and mitofusin 2 (MFN2),[4],no changes
same,amount of mitochondrial ATP,mitochondrial ATP,significant decrease
same,cell cycle distribution,BEAS-2B cells,no change
same,percentage of cells in S-phase,A549 cells [5],reduced percentage
same,percentage of cells in the sub-Go phase,A549 cells [5],increased
same,mitochondrial mass,A549 cells [6],reduced the mitochondrial mass
same,IC50,"U-2OS cells; Homo sapiens, U2OS",< 1000 nM
same,IC50,U-2OS cells,630 ± 100 nM
